Legend:
[1] = Viscosity of the formulations; format: physicochemical; conditions: Table 5 summary; 150 mM excipient, IgG1/lambda monoclonal antibody
Description: Unless otherwise specifically stated, viscosity of any composition discussed herein is determined at a temperature of 20° C. and a shear rate of 1029 s^−1 with a cone spindle of geometry 0.50°/40 mm.

New Zealand White rabbit = assay: Toxicity of Arginine-containing formulation buffer following intravitreal administration; format: in vivo
Description: A study was performed to determine the toxicity of an Arginine-containing formulation buffer following intravitreal administration to the New Zealand White rabbit for 4 weeks. Three buffers in 50 μl volumes and varying in concentrations of Arginine were injected intravitreally on a weekly basis for 3 weeks (i.e., three doses) and evaluated for toxicity. The three buffers were as follows: (1) 10 mM Histidine, 170 mM, Trehalose, 0.01% polysorbate 20, pH 5.5; (2) 50 mM Arginine, 10 mM, Histidine, 120 mM Trehalose, 0.01% polysorbate 20, pH 5.5; and (3) 150 mM Arginine, 10 mM Histidine, 0.01% polysorbate).

Row | SMILES | Reduction of the viscosity of the biologic relative to trehalose, urea and taurin [1] | Damage to photoreceptor cells of the eye (New Zealand White rabbit; higher concentrations, about 150 mM) | Damage to photoreceptor cells of the eye (New Zealand White rabbit; lower concentrations of arginine)
1 | N=C(N)N [guanidine] | far superior in reducing the viscosity | – | –
2 | N=C(N)NCCC[C@H](N)C(=O)O [arginine] | far superior in reducing the viscosity | have shown damage to photoreceptor cells | do not cause damage to photoreceptor cells

Reference: patent publication US10010513B2, “Aqueous pharmaceutical composition containing a biologic therapeutic agent and guanidine or a guanidine derivative and an injection including the composition” (Novartis AG, priority 2012, dated 2018)
